Measurements published in patent US20020132019A1, “Sterol fractions of Nigella sativa L. seeds” (priority 2000, published 2002).

Tests used:
Assay type in all cases: in vivo
[1] = test system: histamine-induced bronchospasm in guinea pigs; test: Prophylactic anti-allergic effect: protection against histamine aerosol (1%) induced bronchospasm; conditions: 239 mg/kg i.p.
Method: The prophylactic anti-allergic effects of the Nigella sativa L. sterol fraction were evaluated in guinea pigs (300-400 grams). Animals were divided into 5 groups (10 animals each) and treated i.p. As follows:
First: Animals treated by saline.
Second: Animals treated by diphenhydramine (239 mg/kg/day).
Third: Animals treated by the Nigella sativa L. sterol fraction (50 mg/kg).
Animals treated by the Nigella sativa L. sterol fraction (100 mg/kg).
Fifth: Animals treated by the Nigella sativa L. sterol fraction (150mg/kg).
Animals were exposed 30 minutes after their i.p. Injection of diphenhydramine and the Nigella sativa L. sterol fraction (50,100 and 150 mg/kg) to histamine aerosol (1% for 3 minutes to induce bronchospasm or tachypnea) (Armitage et al, Br. J. Pharmacol., 16:59-76 (1961)). The percent protection against bronchospasm and loss of rightening after 30, 60 and 90 minutes was calculated (Dawson and Sweatman, Br. J. Pharmacol, 71:387-398 (1980)).

[2] = test system: guinea pigs exposed to histamine aerosol (0.25%); test: Prophylactic anti-asthmatic effect: pre-convulsive time on histamine aerosol (0.25%); conditions: 50 :g/kg, treated for 21 days, histamine 0.25% aerosol
Method: This example explains an in vivo study to evaluate the prophylactic (protective) anti-asthmatic effect of the Nigella sativa L. sterol fraction. The prophylactic anti-asthmatic effect was evaluated in vivo by measurement of the pre-convulsive time in guinea pigs exposed to histamine aerosol (0.25%).
Guinea pigs were divided into three groups with 8 animals per group. The first group received saline injections to serve as negative control. The second group received ketotifen, which is the standard treatment to serve as positive control. The third group received 200 mg/kg each of the Nigella sativa L. sterol fraction of the present invention.
Animals in all groups were treated for 21 days after which time they were exposed to histamine (0.25 %) aerosol and the preconvulsive time was recorded.

[3] = test system: ova albumin sensitized guinea pigs; test: Tachypnea protective effect in ova albumin sensitized animals; conditions: 50 :g/kg, treated for 21 days, ova albumin inhalation
Method: This experiment was an in vivo study to evaluate the tachypnea (protective) effect of the Nigella sativa L. sterol fraction of the present invention. The second protocol involved sensitized animals. Animals were sensitized by injecting ova albumin in two doses 100 mg. each (S.C. and I.P., simultaneously). Animals were resensitized 15 days later. Guinea pigs were divided into three groups with 8 animals per group. The first group received a saline injection to serve as negative control. The second group received ketotifen which is the standard treatment to serve as positive control. The third group received 200 mg/kg each of the Nigella sativa L. sterol fraction of the present invention. Animals in all groups were treated for 21 days following which they were exposed to ova albumin inhalation and time to onset of tachypnea was recorded as shown in the table below.

Compound | % protection 30 minutes ([1]; 30 minutes) | % protection 60 minutes ([1]; 60 minutes) | % protection 90 minutes ([1]; 90 minutes) | % of Prophylaxis (Protection) [2] | % of Prophylaxis [3]
CN(C)CCOC(c1ccccc1)c1ccccc1 [Diphenhydramine, diphenhydramine] | 100% | 100% | 90% | – | –
CN1CCC(=C2c3ccccc3CC(=O)c3sccc32)CC1 [ketotifen] | – | – | – | 82.85% | 44.4%
